Columns and labels:
Details in all cases: EDTA at concentrations of 0.1-40 wt. % by volume
Pseudomonas aeruginosa = system: Pseudomonas aeruginosa
[1] = system: vancomycin resistant Enterococcus (VRE)
[2] = system: methicillin resistant Staphylococcus aureus (MRSA)
Serratia marcescens = system: Serratia marcescens

Measured: killing of microorganisms in the planktonic and biofilm state

O=C(O)CN(CCN(CC(=O)O)CC(=O)O)CC(=O)O [EDTA, ethylenediaminetetra-acetic acid]
effectively killed: all assays above

Source: patent US20260207388A1, “WOUND DRESSING” (ConvaTec Limited, priority 2023, published 2026)
